Test results as given in paper PMC11964630 (Journal of Pharmaceutical Analysis, 2024).

Tested on: U87MG xenograft-bearing NOD/SCID mice
Assay: Ex vivo biodistribution in U87MG xenograft model
Design: species or system mouse
Conditions: single i.v. dose of atezolizumab 20 mg/kg, 24 h before [^18F]AlF-NOTA-PCP2

atezolizumab: anti-PD-L1 antibody used for blockade, 20 mg/kg
decrease in tracer uptake in U87MG tumors: 92.2%
